Changes are numbered by the printed parent chain.
Legend:
Type in all cases: cell-based
Conditions in all cases: for % Max. inhibition: mean ± SEM
[1] = target: T1, GlyT2 I545L mutant (Homo sapiens, UniProt Q9Y345, I545L); experiment: Glycine transport currents, two electrode voltage clamp, Xenopus laevis oocytes expressing GlyT2 I545L
T1 construct: expressed in transfected cells; host or cells: Xenopus laevis oocytes (cRNA injection)
T1 sequence (Q9Y345 1-797 I545L): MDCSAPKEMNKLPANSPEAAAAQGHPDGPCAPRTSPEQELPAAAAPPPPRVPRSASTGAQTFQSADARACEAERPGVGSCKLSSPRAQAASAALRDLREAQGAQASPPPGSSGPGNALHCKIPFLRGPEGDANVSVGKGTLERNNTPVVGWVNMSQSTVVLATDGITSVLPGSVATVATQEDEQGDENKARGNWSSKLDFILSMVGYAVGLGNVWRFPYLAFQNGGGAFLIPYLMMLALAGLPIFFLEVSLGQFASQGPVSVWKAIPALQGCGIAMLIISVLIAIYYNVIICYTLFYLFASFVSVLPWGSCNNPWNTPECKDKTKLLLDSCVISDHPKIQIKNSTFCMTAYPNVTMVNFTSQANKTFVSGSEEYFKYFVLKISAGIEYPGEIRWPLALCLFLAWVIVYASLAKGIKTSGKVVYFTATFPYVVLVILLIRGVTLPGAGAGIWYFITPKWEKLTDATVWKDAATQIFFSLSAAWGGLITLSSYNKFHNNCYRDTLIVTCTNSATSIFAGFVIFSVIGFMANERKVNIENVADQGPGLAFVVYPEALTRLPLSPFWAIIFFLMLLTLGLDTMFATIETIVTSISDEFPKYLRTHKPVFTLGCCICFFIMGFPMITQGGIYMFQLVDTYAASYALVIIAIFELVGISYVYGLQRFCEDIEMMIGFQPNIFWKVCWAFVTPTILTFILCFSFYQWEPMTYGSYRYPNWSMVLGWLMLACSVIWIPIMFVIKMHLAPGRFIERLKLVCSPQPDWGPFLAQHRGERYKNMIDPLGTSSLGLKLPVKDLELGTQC
Procedure: (§1) Glycine was first applied to establish maximal transport current.
(§2) Compounds were tested for inhibition of glycine transport on Xenopus laevis oocytes expressing mutant GlyT1 and GlyT2 transporters. n values are in brackets, with measurements taken from at least 2 batches of oocytes.

[2] = target: T2, GlyT2 L569F mutant (Homo sapiens, UniProt Q9Y345, L569F); experiment: Glycine transport currents, two electrode voltage clamp, oocytes expressing GlyT2 L569F
T2 construct: expressed in transfected cells; host or cells: Xenopus laevis oocytes (cRNA injection)
T2 sequence (Q9Y345 1-797 L569F): T1 sequence (Q9Y345 1-797 I545L) with L545I, L569F
Procedure: as §1, §2

[3] = target: T3, GlyT2 V432A mutant (Homo sapiens, UniProt Q9Y345, V432A); experiment: Glycine transport currents, two electrode voltage clamp, oocytes expressing GlyT2 V432A
T3 construct: expressed in transfected cells; host or cells: Xenopus laevis oocytes (cRNA injection)
T3 sequence (Q9Y345 1-797 V432A): T1 sequence (Q9Y345 1-797 I545L) with V432A, L545I
Procedure: as §1, §2

[4] = GlyT2 I545L, greater than maximum concentration applied (footnote a)
[5] = GlyT2 V432A, greater than maximum concentration applied (footnote a)

CCCCCCCC/C=C\CCCCCCCC(=O)N[C@@H](CC(=O)O)C(=O)O [oleoyl l-Aspartate]
IC50 [1, 4]: > 10 µM
% Max. inhibition ([1]; GlyT2 I545L): 4.9 ± 6.4 (p=0.0001) %

NCC(=O)O [Glycine]
EC50 ([2]; glycine transport, GlyT2 L569F (TM8)): 7 ± 0.6 µM
EC50 ([3]; glycine transport, GlyT2 V432A (TM5)): 114 ± 21.6 µM

CCCCCCCC/C=C\CCCCCCCC(=O)O[C@H](CC(=O)[O-])C[N+](C)(C)C [oleoyl L-Carnitine, reference compound]
% Max. inhibition (% inhibition at the highest concentration of inhibitor used) ([2]; GlyT2 L569F, footnote b): 45.5 ± 7.0^b (p=0.0038) %
IC50 ([2]; GlyT2 L569F, mean (95% CI)): 1.2 µM
IC50 [3, 5]: > 3 µM
% Max. inhibition ([3]; GlyT2 V432A): 6.0 ± 3.2 (p=0.0001) %

CCCCCCCC/C=C\CCCCCCCC(=O)N[C@H](C(=O)O)C(C)C [oleoyl l-Valine]
% Max. inhibition (% inhibition at the highest concentration of inhibitor used) ([1]; GlyT2 I545L, footnote b): 22.5 ± 8.0^b (p=0.0001) %
IC50 [1, 4]: > 10 µM

CCCCCCCC/C=C\CCCCCCCC(=O)NCC(=O)O [N-oleoyl Glycine, reference compound]
IC50 ([2]; GlyT2 L569F, greater than maximum concentration applied (footnote a)): > 10 µM
% Max. inhibition ([2]; GlyT2 L569F): 32.5 ± 3.6 (p=0.0005) %
% Max. inhibition (% inhibition at the highest concentration of inhibitor used) ([3]; GlyT2 V432A, footnote b): 1.9 ± 3.2^b (p=0.0001) %
IC50 [3, 5]: > 10 µM

CCCCCCCC/C=C\CCCCCCCC(=O)N[C@@H](Cc1c[nH]c2ccccc12)C(=O)O [oleoyl l-Tryptophan]
IC50 [1, 4]: > 10 µM
% Max. inhibition ([1]; GlyT2 I545L): 20.2 ± 1.7 (p=0.0001) %

CCCCCCCC/C=C\CCCCCCCC(=O)N[C@@H](CCCCN)C(=O)O [oleoyl l-Lysine]
fold lower potency at I545L ([1]; GlyT2 I545L compared with WT GlyT2): ~ 17 fold
IC50 ([1]; GlyT2 I545L, mean (95% CI)): 0.443 µM
% Max. inhibition ([1]; GlyT2 I545L): 80.7%
IC50 ([2]; GlyT2 L569F, mean (95% CI)): 0.301 µM
% Max. inhibition ([2]; GlyT2 L569F): 76.8 ± 5.8 (p=0.4504) %
IC50 ([3]; GlyT2 V432A, mean (95% CI)): 0.0684 µM
% Max. inhibition ([3]; GlyT2 V432A): 71.9 ± 1.9 (p=0.0001) %

CCCCC/C=C\C/C=C\C/C=C\C/C=C\CCCC(=O)NCC(=O)O [N-arachidonyl Glycine, reference compound]
IC50 ([2]; GlyT2 L569F, mean (95% CI)): 3.59 µM
% Max. inhibition ([2]; GlyT2 L569F): 63.7 ± 19.0 (p=0.9990) %
IC50 [3, 5]: > 10 µM
% Max. inhibition ([3]; GlyT2 V432A): 4.2 ± 3.2 (p=0.0018) %

— PMC6797481, “Identification of an allosteric binding site on the human glycine transporter, GlyT2, for bioactive lipid analgesics” (eLife, 2019)
